US9169254B2, “Spiroimidazolone derivative” (Chugai Seiyaku Kabushiki Kaisha, priority 2009, dated 2015)

Target: T1, human PTH1 receptor (Homo sapiens, UniProt Q03431)
T1 sequence (Q03431 27-593): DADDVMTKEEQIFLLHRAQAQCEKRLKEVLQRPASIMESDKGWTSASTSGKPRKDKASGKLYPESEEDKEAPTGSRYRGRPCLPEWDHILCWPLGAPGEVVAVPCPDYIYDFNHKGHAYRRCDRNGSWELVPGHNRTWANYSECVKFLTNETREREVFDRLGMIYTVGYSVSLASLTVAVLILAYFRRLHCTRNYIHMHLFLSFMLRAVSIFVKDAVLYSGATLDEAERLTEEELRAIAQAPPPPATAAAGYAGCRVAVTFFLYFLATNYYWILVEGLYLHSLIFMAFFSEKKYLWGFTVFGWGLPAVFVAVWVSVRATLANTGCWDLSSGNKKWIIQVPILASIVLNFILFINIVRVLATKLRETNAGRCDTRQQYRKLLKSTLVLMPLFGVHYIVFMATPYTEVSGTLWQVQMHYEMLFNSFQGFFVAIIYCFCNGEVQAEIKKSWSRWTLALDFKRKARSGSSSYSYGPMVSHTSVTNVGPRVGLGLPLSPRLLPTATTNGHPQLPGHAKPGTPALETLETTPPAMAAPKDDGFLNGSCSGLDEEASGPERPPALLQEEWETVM
Assay: In vitro cAMP signal activity in HKRK-B7 cells (LLC-PK1 cells overexpressing the human PTH1 receptor)
Type: cell-based
Conditions: HKRK-B7 cells; compound at 1×10^−3 M; cAMP produced as percentage of that produced by hPTH(1-34) at 100 nM

First: CC(=O)Nc1ccc(CCS(=O)(=O)N2CCC3(CC2)N=C([C@H]2CC[C@@H](CC(F)F)CC2)NC3=O)c(C)c1 [Compound 1071, N-[4-(2-{2-[4-(2,2-difluoro-ethyl)-cyclohexyl]-4-oxo-1,3,8-triaza-spiro[4.5]dec-1-ene-8-sulfonyl}-ethyl)-3-methyl-phenyl]-acetamide]
Second: Cc1cc(CC(N)=O)ccc1CCS(=O)(=O)N1CCC2(CC1)N=C(C1CCC(C)CC1)NC2=O (stereo not drawn) [Compound 750, 2-(3-Methyl-4-{2-[2-(4-methyl-cyclohexyl)-4-oxo-1,3,8-triaza-spiro[4.5]dec-1-ene-8-sulfonyl]-ethyl}-phenyl)-acetamide]
The “cAMP production activity (%)” value of the first is lower: 60% for the first, 87% for the second.

First: O=C1NC(C2CCCCC2)=NC12CCN(S(=O)(=O)/C=C/c1ccc3c(ccn3CCOCCO)c1)CC2 [Compound 487, 2-cyclohexyl-8-((E)-2-{1-[2-(2-hydroxy-ethoxy)-ethyl]-1H-indol-5-yl}-ethenesulfonyl)-1,3,8-triaza-spiro[4.5]dec-1-en-4-one]
Second: O=C1NC(C2CCCCC2)=NC12CCN(S(=O)(=O)CCc1ccc3c(ccn3C[C@H](O)CO)c1)CC2 [Compound 872, 2-cyclohexyl-8-{2-[1-((S)-2,3-dihydroxy-propyl)-1H-indol-5-yl]-ethanesulfonyl}-1,3,8-triaza-spiro[4.5]dec-1-en-4-one]
The “cAMP production activity (%)” value of the first is lower: 49% for the first, 109% for the second.

Compared with `Cc1cc(C(=O)N2CCOC2=O)cc(C)c1CCS(=O)(=O)N1CCC2(CC1)N=C(C1CCCCC1)NC2=O` [Compound 1179, 2-Cyclohexyl-8-{2-[2,6-dimethyl-4-(2-oxo-oxazolidine-3-carbonyl)-phenyl]-ethanesulfonyl}-1,3,8-triaza-spiro[4.5]dec-1-en-4-one], `O=C(c1c[nH]c2cccc(CCS(=O)(=O)N3CCC4(CC3)N=C(C3CCCCC3)NC4=O)c12)C(F)(F)F` [Compound 649, 2-cyclohexyl-8-{2-[3-(2,2,2-trifluoro-acetyl)-1H-indol-4-yl]-ethanesulfonyl}-1,3,8-triaza-spiro[4.5]dec-1-en-4-one] is lower in “cAMP production activity (%)” value: 65% for the first, 40% for the second.

Compared with `CCCCCCCCCC1=NC2(CCN(S(=O)(=O)/C=C/c3ccc(N4C(=O)CNC4=O)cc3C(F)(F)F)CC2)C(=O)N1` [Compound 537, 3-{4-[(E)-2-(2-nonyl-4-oxo-1,3,8-triaza-spiro[4.5]dec-1-ene-8-sulfonyl)-vinyl]-3-trifluoromethyl-phenyl}-imidazolidine-2,4-dione], `CCCCCCCCCC1=NC2(CCN(S(=O)(=O)CCc3ccc(C(=O)N4CCC4)cc3C)CC2)C(=O)N1` [Compound 978, 8-{2-[4-(azetidine-1-carbonyl)-2-methyl-phenyl]-ethanesulfonyl}-2-nonyl-1,3,8-triaza-spiro[4.5]dec-1-en-4-one] is higher in “cAMP production activity (%)” value: 3.9% for the first, 91% for the second.

First: Cc1cc(CN(C)C(N)=O)cc(C)c1CCS(=O)(=O)N1CCC2(CC1)N=C(C1CCC(CCC(F)(F)F)CC1)NC2=O (stereo not drawn) [Compound 1389, 1-[3,5-dimethyl-4-(2-{4-oxo-2-[4-(3,3,3-trifluoro-propyl)-cyclohexyl]-1,3,8-triaza-spiro[4.5]dec-1-ene-8-sulfonyl}-ethyl)-benzyl]-1-methyl-urea]
Second: Cc1cc(C(=O)N(C)C)ccc1CCS(=O)(=O)N1CCC2(CC1)N=C(C1CCC(C(F)(F)F)CC1)NC2=O (stereo not drawn) [Compound 104, 3,N,N-trimethyl-4-{2-[4-oxo-2-(4-trifluoromethyl-cyclohexyl)-1,3,8-triaza-spiro[4.5]dec-1-ene-8-sulfonyl]-ethyl}-benzamide]
The “cAMP production activity (%)” value of the first is lower: 67% for the first, 79% for the second.

Compared with `Cc1cc(N2COCC2=O)ccc1/C=C/S(=O)(=O)N1CCC2(CC1)N=C(C1CCC(C)CC1)NC2=O` (stereo not drawn) [Compound 577, 2-(4-methyl-cyclohexyl)-8-{(E)-2-[2-methyl-4-(4-oxo-oxazolidin-3-yl)-phenyl]-ethenesulfonyl}-1,3,8-triaza-spiro[4.5]dec-1-en-4-one], `CC1(C)OC[C@H](Cn2cc(F)c3c(/C=C/S(=O)(=O)N4CCC5(CC4)N=C(C4CCCCC4)NC5=O)cccc32)O1` [Compound 202, 2-cyclohexyl-8-{(E)-2-[1-((S)-2,2-dimethyl-[1,3]dioxolan-4-ylmethyl)-3-fluoro-1H-indol-4-yl]-ethenesulfonyl}-1,3,8-triaza-spiro[4.5]dec-1-en-4-one] is lower in “cAMP production activity (%)” value: 74% for the first, 27% for the second.

First: Cc1cc(C(=O)N2CCN(C)CC2)ccc1CCS(=O)(=O)N1CCC2(CC1)N=C(c1cccc(C(F)(F)F)c1)NC2=O [Compound 289, 8-{2-[2-methyl-4-(4-methyl-piperazine-1-carbonyl)-phenyl]-ethanesulfonyl}-2-(3-trifluoromethyl-phenyl)-1,3,8-triaza-spiro[4.5]dec-1-en-4-one]
Second: Cc1cc(C(=O)N2CC[C@H](O)C2)ccc1CCS(=O)(=O)N1CCC2(CC1)N=C(c1cccc(C(F)(F)F)c1)NC2=O [Compound 370, 8-{2-[4-((S)-3-hydroxy-pyrrolidine-1-carbonyl)-2-methyl-phenyl]-ethanesulfonyl}-2-(3-trifluoromethyl-phenyl)-1,3,8-triaza-spiro[4.5]dec-1-en-4-one]
The “cAMP production activity (%)” value of the first is higher: 99% for the first, 66% for the second.

Going from `Cc1cc(C(=O)N(C)C)ccc1CCS(=O)(=O)N1CCC2(CC1)N=C(c1ccc(S(C)(=O)=O)cc1)NC2=O` [Compound 891, 4-{2-[2-(4-methanesulfonyl-phenyl)-4-oxo-1,3,8-triaza-spiro[4.5]dec-1-ene-8-sulfonyl]-ethyl}-3,N,N-trimethyl-benzamide] to `Cc1cc(C(=O)N(C)C)ccc1CCS(=O)(=O)N1CCC2(CC1)N=C(C1(C(F)(F)F)CC1)NC2=O` [Compound 136, 3,N,N-trimethyl-4-{2-[4-oxo-2-(1-trifluoromethyl-cyclopropyl)-1,3,8-triaza-spiro[4.5]dec-1-ene-8-sulfonyl]-ethyl}-benzamide], the “cAMP production activity (%)” value rises from 8.6% to 72%.

Compared with `O=C1NC(c2cccc(C(F)(F)F)c2)=NC12CCN(S(=O)(=O)CCc1cccc3c1ccn3C[C@H](O)CO)CC2` [Compound 840, 8-{2-[1-((S)-2,3-dihydroxy-propyl)-1H-indol-4-yl]-ethanesulfonyl}-2-(3-trifluoromethyl-phenyl)-1,3,8-triaza-spiro[4.5]dec-1-en-4-one], `Cc1cc(C(=O)N2CCC[C@@H]2C(N)=O)ccc1CCS(=O)(=O)N1CCC2(CC1)N=C(c1cccc(C(F)(F)F)c1)NC2=O` [Compound 369, (R)-1-(3-methyl-4-{2-[4-oxo-2-(3-trifluoromethyl-phenyl)-1,3,8-triaza-spiro[4.5]dec-1-ene-8-sulfonyl]-ethyl}-benzoyl)-pyrrolidine-2-carboxylic acid amide] is lower in “cAMP production activity (%)” value: 98% for the first, 43% for the second.

First: Cc1cc(C(=O)N2CCC(O)CC2)c(F)cc1CCS(=O)(=O)N1CCC2(CC1)N=C(c1cccc(C(F)(F)F)c1)NC2=O [Compound 419, 8-{2-[5-fluoro-4-(4-hydroxy-piperidine-1-carbonyl)-2-methyl-phenyl]-ethanesulfonyl}-2-(3-trifluoromethyl-phenyl)-1,3,8-triaza-spiro[4.5]dec-1-en-4-one]
Second: Cc1cc(C(=O)N(C)CCO)ccc1/C=C/S(=O)(=O)N1CCC2(CC1)N=C(c1cccc(C(F)(F)F)c1)NC2=O [Compound 214, N-(2-hydroxy-ethyl)-3,N-dimethyl-4-{(E)-2-[4-oxo-2-(3-trifluoromethyl-phenyl)-1,3,8-triaza-spiro[4.5]dec-1-ene-8-sulfonyl]-vinyl}-benzamide]
The “cAMP production activity (%)” value of the first is higher: 96% for the first, 84% for the second.

Going from `Cc1cc(C(=O)N2CC(C)(O)C2)cc(C)c1/C=C/S(=O)(=O)N1CCC2(CC1)N=C(c1ccc(F)c(C(F)(F)F)c1)NC2=O` [Compound 970, 2-(4-fluoro-3-trifluoromethyl-phenyl)-8-{(E)-2-[4-(3-hydroxy-3-methyl-azetidine-1-carbonyl)-2,6-dimethyl-phenyl]-ethenesulfonyl}-1,3,8-triaza-spiro[4.5]dec-1-en-4-one] to `Cc1cc(CCS(=O)(=O)N2CCC3(CC2)N=C(c2cccc(OC(F)(F)F)c2)NC3=O)cc(C)c1OCCC(O)CO` (stereo not drawn) [Compound 855, 8-{2-[4-(3,4-dihydroxy-butoxy)-3,5-dimethyl-phenyl]-ethanesulfonyl}-2-(3-trifluoromethoxy-phenyl)-1,3,8-triaza-spiro[4.5]dec-1-en-4-one], the “cAMP production activity (%)” value falls from 112% to 82%.

Going from `CN(C)C(=O)CNc1ccc(/C=C/S(=O)(=O)N2CCC3(CC2)N=C(C2CCCCC2)NC3=O)c(C(F)(F)F)c1` [Compound 201, 2-{4-[(E)-2-(2-cyclohexyl-4-oxo-1,3,8-triaza-spiro[4.5]dec-1-ene-8-sulfonyl)-vinyl]-3-trifluoromethyl-phenylamino}-N,N-dimethyl-acetamide] to `Cc1cc(CN(CCO)C(=O)OC(C)(C)C)ccc1CCS(=O)(=O)N1CCC2(CC1)N=C(C1CCCCC1)NC2=O` [Compound 681, {4-[2-(2-Cyclohexyl-4-oxo-1,3,8-triaza-spiro[4.5]dec-1-ene-8-sulfonyl)-ethyl]-3-methyl-benzyl}-(2-hydroxy-ethyl)-carbamic acid tert-butyl ester], the “cAMP production activity (%)” value falls from 56% to 55%.
